We go through one compound from patent US8318504B2, “MRP2 efflux pathway prognostic method” (priority 2009, dated 2012).

The structures appear in SMILES notation.

One data set concerns the target T1, OATP1B3 (Homo sapiens, UniProt Q9NPD5).
T1 construct: expressed in transfected cells; host or cells: CHO cells (stably transfected; Treiber et al. 2007)
T1 sequence (Q9NPD5 1-702): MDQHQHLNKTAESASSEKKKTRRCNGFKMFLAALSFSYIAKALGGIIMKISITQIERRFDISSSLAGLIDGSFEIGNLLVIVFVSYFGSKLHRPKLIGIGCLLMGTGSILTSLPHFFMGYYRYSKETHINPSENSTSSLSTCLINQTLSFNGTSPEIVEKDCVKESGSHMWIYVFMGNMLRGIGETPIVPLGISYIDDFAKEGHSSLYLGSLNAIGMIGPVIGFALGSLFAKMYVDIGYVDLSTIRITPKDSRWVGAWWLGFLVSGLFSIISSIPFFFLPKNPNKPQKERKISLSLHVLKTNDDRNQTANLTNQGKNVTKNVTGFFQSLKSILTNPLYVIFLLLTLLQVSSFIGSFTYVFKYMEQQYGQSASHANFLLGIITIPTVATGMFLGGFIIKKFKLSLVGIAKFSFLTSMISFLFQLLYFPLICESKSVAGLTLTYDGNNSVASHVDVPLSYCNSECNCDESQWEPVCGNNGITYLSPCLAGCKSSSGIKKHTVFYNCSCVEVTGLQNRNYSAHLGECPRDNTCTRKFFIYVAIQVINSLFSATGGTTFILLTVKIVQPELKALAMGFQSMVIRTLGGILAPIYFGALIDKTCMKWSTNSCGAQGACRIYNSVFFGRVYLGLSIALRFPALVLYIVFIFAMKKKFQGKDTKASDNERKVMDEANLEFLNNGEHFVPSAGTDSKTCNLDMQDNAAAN
Kind of data set: Uptake of CLF into CHO cells expressing OATP1B3. The arrangement: Vmax of OATP1B3 mediated CLF transport: unit not given here. Type of data set: cell-based. How it is done: cDNA for human NTCP [Hagenbuch et al., J Clin Invest 1994 March; 93(3): 1326-1331] was cut with EcoRV and HindI and the coding region ligated into pcDNA5/FRT (Invitrogen, Life-Technologies, Carlsbad, Calif.). CHO FlpIn cells (Invitrogen, Life-Technologies) were transfected with the resulting construct using Lipofectamine® 2000 (Invitrogen, Life-Technologies). Stably transfected cells were selected with 550 μg Hygromycin-B in HAM-F12 medium (Gibco, Invitrogen, Life-Technologies). Transfected cells were cloned with the limiting dilution method. […] To further characterize the cloned cells, immunofluorescence localization of NTCP using a polyclonal antibody against NTCP [Kullak-Ublick G et al., Gastroenterology 1997 October; 113(4):1295-1305] was performed as described by Huber R D et al. [Am J Physiol Cell Physiol 2007 February; 292(2):[…]-[…]]. CHO cells expressing OATP1B1, OATP1B3 and OATP2B1 were described previously [Treiber et al., DMD 35:1400-1407, 2007]. For all transport experiments, cells grown on 3 cm culture dishes were cultured for 24 hours in media supplemented with 5 mmol/L sodium-butyrate to increase expression levels of transfected transporters [Palermo D P et al., J Biotechnol 1991 June; 19(1):35-47]. • Transport experiments with uptake of radioactively labeled substrates: These experiments were performed as described by Huber R D et al. […] Uptake was performed in the same buffers as for the radioactive substrates above. For visualization of CLF uptake, cells were immediately inspected with a Leica-DM-IRBE-inverted-microcope (Leica-Microsystems, Wetzlar, Germany) equipped with a Hamamatsu-ORKA-ER-camera (Hamamatsu-Photonoics, Japan). To determine uptake of CLF, cells were solubilized by the addition of 2 ml 1% (w/v) Triton-X-100. After complete solubilization, 1.5 ml was used to measure fluorescence in a Perkin-Elmer LS-5 luminescence-spectrometer set at λexe 486 nm (slit 10 nm) and λem 520 nm (slit 5 nm). Protein was determined with the bicinchoninic acid method using a kit from Interchim (Montfuçon, France). […]

The next data set deals with T2, OATP1B1 (Homo sapiens, UniProt Q9Y6L6).
T2 construct: expressed in transfected cells; host or cells: CHO cells (stably transfected; Treiber et al. 2007)
T2 sequence (Q9Y6L6 1-691): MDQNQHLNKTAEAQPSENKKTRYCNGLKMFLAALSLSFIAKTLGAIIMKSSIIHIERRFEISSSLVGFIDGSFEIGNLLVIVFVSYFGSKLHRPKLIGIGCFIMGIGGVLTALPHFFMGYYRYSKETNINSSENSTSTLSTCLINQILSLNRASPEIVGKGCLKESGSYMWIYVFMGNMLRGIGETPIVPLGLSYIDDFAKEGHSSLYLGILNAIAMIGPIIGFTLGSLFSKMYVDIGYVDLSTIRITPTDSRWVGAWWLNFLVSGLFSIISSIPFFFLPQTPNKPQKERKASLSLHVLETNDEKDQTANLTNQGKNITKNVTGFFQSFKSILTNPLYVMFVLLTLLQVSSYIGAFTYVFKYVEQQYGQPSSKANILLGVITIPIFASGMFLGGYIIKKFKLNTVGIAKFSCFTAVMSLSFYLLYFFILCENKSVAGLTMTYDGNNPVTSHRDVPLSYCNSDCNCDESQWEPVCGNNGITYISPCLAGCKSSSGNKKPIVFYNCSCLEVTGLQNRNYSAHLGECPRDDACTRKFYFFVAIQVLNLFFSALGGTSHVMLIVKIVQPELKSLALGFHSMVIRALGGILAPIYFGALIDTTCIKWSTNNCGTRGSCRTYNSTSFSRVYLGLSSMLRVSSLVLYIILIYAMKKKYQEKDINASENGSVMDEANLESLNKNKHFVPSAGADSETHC
Description: Uptake of CLF into CHO cells expressing OATP1B1. It is filed as cell-based. Conditions: 1 μmol/L CLF, 1 or 5 minutes. As for the experimental part:
cDNA for human NTCP [Hagenbuch et al., J Clin Invest 1994 March; 93(3): 1326-1331] was cut with EcoRV and HindI and the coding region ligated into pcDNA5/FRT (Invitrogen, Life-Technologies, Carlsbad, Calif.). CHO FlpIn cells (Invitrogen, Life-Technologies) were transfected with the resulting construct using Lipofectamine® 2000 (Invitrogen, Life-Technologies). Stably transfected cells were selected with 550 μg Hygromycin-B in HAM-F12 medium (Gibco, Invitrogen, Life-Technologies). Transfected cells were cloned with the limiting dilution method. […] To further characterize the cloned cells, immunofluorescence localization of NTCP using a polyclonal antibody against NTCP [Kullak-Ublick G et al., Gastroenterology 1997 October; 113(4):1295-1305] was performed as described by Huber R D et al. [Am J Physiol Cell Physiol 2007 February; 292(2):[…]-[…]]. CHO cells expressing OATP1B1, OATP1B3 and OATP2B1 were described previously [Treiber et al., DMD 35:1400-1407, 2007]. […] After complete solubilization, 1.5 ml was used to measure fluorescence in a Perkin-Elmer LS-5 luminescence-spectrometer set at λexe 486 nm (slit 10 nm) and λem 520 nm (slit 5 nm). Protein was determined with the bicinchoninic acid method using a kit from Interchim (Montfuçon, France). […]

In the case of `CC(CCC(=O)NC(CCCCNC(=S)Nc1ccc(-c2c3ccc(=O)cc-3oc3cc(O)ccc23)c(C(=O)O)c1)C(=O)O)C1CCC2C3C(O)CC4CC(O)CCC4(C)C3CC(O)C12C` (stereo not shown) [CLF, cholyl lysyl fluorescein], the “uptake of CLF into OATP1B3 expressing cells” value on OATP1B3 (1 μmol/L CLF, 1 or 5 minutes) is on record as “clear uptake”. Further, the “Vmax of OATP1B3 mediated CLF transport” value on OATP1B3 (45 seconds, mean of three independent determinations) was found to be 213±42. Also, at OATP1B3 (human, CHO cells expressing OATP1B3, 45 seconds, mean of three independent determinations, read-out: Km of OATP1B3 mediated CLF transport), the Km at 45 seconds was determined as 4.6 ± 2.7 µM. In addition, the “uptake of CLF into OATP1B1 cells” value on OATP1B1 is recorded as “very weak but consistent”.
